The values below come from US20090326259A1, “NF-Kappabeta Activation Inhibitor” (Tokyo University of Marine Science and Technology, priority 2006, published 2009).

The subject of the experiment is NF-κB. The experiment can be described thus: LPS-stimulated NF-κB activation in RAW264.7 murine macrophage (gel shift with biotin-labelled NF-κB consensus sequence). Type of experiment: cell-based. The note with it: RAW264.7, 1 μM compound 22 h, then 1 μg/ml LPS 2 h; FIG. 2. As for the experimental part:
[Measurement of LPS-stimulated NF-κB activation in RAW264.7 murine macrophage strain] The murine macrophage RAW264.7 is preserved in DMEM containing 10% fetal bovine serum. After treatment in DMEM with 1 μM cycloartenyl ferulate (CAF) for 22 h, it is further stimulated for 2 h in 1 μg/ml lipopolysaccharide (LPS).
The nucleoprotein of RAW264.7 cell is extracted with Transfactor Extraction kit (BD Biosciences, USA), and then is bound with the following NF-κB consensus sequence of biotin-labeling reaction for 60 min in reaction solution consisting 100 mM HEPES (pH 7.6), 5 mM EDTA, 50 mM ammonium sulfate, 5 mM DTT, 150 mM KCl, 1% (v/v) Tween20 and 0.0001% poly (dI-dC) (Amersham Biosciences, USA).
Except these experimental groups, control group reacting with 90-fold unlabeled consensus sequence, along with supershift group using anti-p50 polyclonal antibody (Abcam, USA) and anti-p65 polyclonal antibody (Santa Cruz Biotechnology, INC., USA) are established to make comparison. […]
The peroxidase activity is detected with Immobilon Western Chemiluminescent HRP substrate (Millipore, USA) and the luminous intensity is quantified by Image J (National Institutes of Health, USA) as shown in FIG. 2. […]
(A gel shift assay detects complexes by their altered migration in electrophoresis.)

Turning to `COc1cc(/C=C/C(=O)O)ccc1O` [ferulic acid], the NF-κB activation result was “barely inhibits”.
